Assays:
[1] = test system: primary mouse cortical neurons; assay: Synaptic density of primary mouse cortical neurons (synaptophysin P38 puncta), FIG. 6; type: cell-based; conditions: luM, 24 hours of treatment
Description: The effect of the indicated compounds on the synaptic density of primary mouse cortical neurons was determined after 24 hours of treatment. FIG. 6. Primary mouse cortical neurons were treated on day 15 in vitro with fascin-inhibiting small molecules at luM, or with vehicle (DMSO). After 24 hours of treatment, neurons were fixed, immunolabeled for a protein component of synapses, the presynaptic vesicle protein, synaptophysin (P38), and then stained with the nuclear dye DAPI. Immunolabeled neurons were imaged on a Leica confocal microscope. The numbers of P38-immunopositive puncta were analyzed using FUI with the Squash plugin.

fascin = fascin (Homo sapiens, UniProt Q16658); conditions: cited from earlier work

What does the source list for `O=C(Nc1nn(Cc2ccc(C(F)(F)F)cc2)c2ccccc12)c1ccco1` [compound 1, N-(1-(4-(trifluoromethyl)benzyl)-1H-indazol-3-yl)furan-2-carboxamide]?
Spine density compared to comparative compounds [1]: increase spine density more than comparative compounds 1 and 7; Spine density compared to control ([1]; vs vehicle (DMSO)): increase spine density compared to control; Fascin binding site (fascin; FIG. 5): bind to fascin at binding site 2; Effect of binding on actin-binding sites of fascin (fascin): opens actin-binding site 2 and closes actin-binding site 1
